Experimental data published in the METLIN SMRT retention time set (Domingo-Almenara et al. 2019).

Test: gradient 5% acetonitrile 3 min, to 50% in 2 min, to 85% in 15 min, held 3 min, 100 µL/min
Conditions: column: Zorbax Extend-C18 2.1 x 50 mm; eluents: water / acetonitrile, 0.1% formic acid
Method in brief: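 Retention times come from adduct peaks that were picked computationally and then checked by hand. The standards, pure and pooled in mixtures of ~100 molecules, were run on a Zorbax Extend-C18 column (2.1 × 50 mm, 1.8 μm) at 100 μL/min with water and acetonitrile, each with 0.1% formic acid. Detection was by quadrupole time-of-flight mass spectrometry in positive and negative ionization mode, with a dead volume of 40 μL and a dwell volume of 900 μL.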

| Structure (SMILES) | RP-LC retention time [s] |
| --- | --- |
| O=C(c1cn(-c2cc(-c3nc(C4CC4)no3)ccn2)cn1)N1CCSCC1 | 833 |
| Cc1ccc(N2C(=O)C3N=NN(Cc4nc(-c5cccc(C(F)(F)F)c5)no4)C3C2=O)cc1 (stereo unspecified) | 1080 |
| Cc1ccc(N2C=NS(=O)(=O)c3cccnc32)c(F)c1 | 801 |
| CCN1CCCC1CN(CC(=O)N1CCNCC1)S(=O)(=O)c1ccc(CC(C)C)cc1 (stereo unspecified) | 610 |
| Cc1ccc(F)c(NS(=O)(=O)c2cn(C(C)C)c3ncccc23)c1 | 912 |
| CN1CCCc2cc(C(=O)NC3CCCCC3)sc21 | 934 |
| O=C(CC(c1ccccc1)c1ccccc1)Nc1cc(N2CCOCC2)ncn1 | 752 |
| O=C(Cc1cccs1)N1CCC(COc2ccc(C(=O)N3CCOCC3)cc2)CC1 | 734 |
| COc1ccccc1-c1noc(C2CCCN2C(=O)Nc2ccc(C)c(C)c2)n1 (stereo unspecified) | 925 |
| CN1C(=O)Cc2ccccc2C1C(=O)N1CCN(c2ccc(Cl)cc2)CC1 (stereo unspecified) | 854 |
| COc1ccccc1CNC(=O)C1CCCN(c2cnc3nccnc3c2)C1 (stereo unspecified) | 689 |
| CCc1cccc(CC)c1NC(=O)N1Cc2[nH]nc(NC(=O)c3ccc(N4CCN(C)CC4)cc3)c2C1 | 664 |
| O=C(c1ccc2[nH]ccc2c1)N1CCN(c2cc(-c3cccs3)[nH]n2)CC1 | 708 |
| COc1ccccc1Nc1nc(-c2ccc(C)cc2)c(C)s1 | 1210 |
| CCC(CC)C(=O)Nc1ccc(-c2nc(-c3ccc(Cl)cc3)no2)cc1 | 639 |
| Cc1nn(-c2ccc(-c3ccccc3)nn2)c(C)c1S(=O)(=O)N1CCCCC1 | 1090 |
| Cc1ccc(CNC(=O)Cn2c(C)cc(-c3nnc(-c4ccccc4)o3)c2C)cc1 | 949 |
| O=C(NCCn1cnc2cc(C(=O)N3CCCC3)ccc21)NCc1ccco1 | 985 |
| O=C(NCc1ccc2c(c1)OCO2)C1CCN(C(=O)c2cc(-c3ccncc3)n[nH]2)CC1 | 579 |
| N[C@@H]1CCCCN(c2c(F)cc3c(=O)c(C(=O)O)cn(C4CC4)c3c2Cl)C1 | 707 |
| Cc1ccc(NC(=O)Cn2nc(N3CCCC3)c3ccccc3c2=O)c(F)c1 | 885 |

| Structure (SMILES) | RP-LC retention time [s] |
| --- | --- |
| Cc1ccc(C(=O)N2CCC(n3nc(-c4ccsc4)ccc3=O)CC2)cc1 | 835 |
| COC(=O)c1cnn(-c2ccc(C(=O)NC3CCCC3)cc2)c1N | 716 |
| Cc1ccccc1NC(=O)N(C)CC1CCOC1 (stereo unspecified) | 704 |
| CNC(=O)c1nc(N2CCSCC2)c2cnn(C)c2n1 | 632 |
| CCc1ccc(NC(=O)Cn2cnc3nc(N4CCC(C(=O)NC5CC5)CC4)sc3c2=O)cc1 | 708 |
| COc1ccc(-c2nc3ncccn3c2NC2CCCCCC2)cc1OC | 756 |
| O=C(N[C@H]1C[C@@H]2C[C@H]1CN2C(=O)Nc1ccc(C(F)(F)F)cc1)c1cccs1 | 840 |
| COc1ccc(NC(=O)Nc2cc(F)c3nc(N4CCOCC4)ccc3c2)cc1OC | 938 |
| Cc1nc(-c2cn(C(C)C)c3ncccc23)sc1C(=O)Nc1ccc2c(c1)OCCO2 | 1010 |
| CCN1C(=O)c2cc(S(=O)(=O)NCc3ccccc3)ccc2Oc2cccnc21 | 986 |
| O=C(Cn1ccc2ccc(N3CCOCC3)nc21)N1CCN(c2ccc(F)cc2)CC1 | 898 |
| Cc1noc(C2CN(C(=O)Nc3ccc(F)cc3)CC23CCOCC3)n1 (stereo unspecified) | 723 |
| COc1ccccc1OCC1c2ccsc2CCN1C(=O)CN(CC1CC1)C(=O)NC(C)C (stereo unspecified) | 919 |
| O=C(CSc1ccc(N2CCC(C(=O)NC3CC3)CC2)nn1)NCc1ccc(F)cc1 | 609 |
| O=c1c(Br)c(-c2ccccc2)[nH]c2ccccc12 | 715 |
| Cc1ccc(Cn2nc3c(S(=O)(=O)N4CCc5ccccc5C4)cccn3c2=O)cc1 | 941 |
| CCCNC(=O)C1CCCN1S(=O)(=O)c1cc(C(=O)OCC)n(C)c1 (stereo unspecified) | 762 |
| O=C(c1c[nH]c2ccccc12)N1C[C@@H]2C[C@H]1C[C@@H]2NS(=O)(=O)c1ccccc1 | 679 |
| COc1ccccc1N1CCN(C(=O)c2cn3cc(Cl)ccc3n2)CC1 | 858 |
| O=C(NCc1ccccc1Br)c1ccc(-c2cncnc2)nc1 | 748 |
| Cc1nc2ccn(Cc3cccnc3)c(=O)c2cc1C(=O)NC1CCCCC1 | 620 |

Continued, values first:

| RP-LC retention time [s] | Structure (SMILES) |
| --- | --- |
| 1110 | COc1ccc(Cl)cc1NC(=O)c1cc2c(=O)oc3ccccc3c2n1C |
| 900 | CCOCC1CCC2(CCN(C(=O)Cn3c(=O)oc4cc(Cl)ccc43)CC2)O1 (stereo unspecified) |
| 806 | Cc1nnsc1C(=O)N1CCC(CNC(=O)C(C)(C)Oc2ccc(Cl)cc2)CC1 |
| 664 | CCCCNC(=O)CCc1cc2cc(OC)ccc2[nH]c1=O |
| 738 | O=C(Cn1cnc2nc3c(cc2c1=O)CCCC3)Nc1cc(F)ccc1F |
| 1250 | CCCCCn1c(=O)c2ccccc2n(Cc2nc(-c3ccccc3OCC)no2)c1=O |
| 595 | O=C(NCCCN1CCCC1)c1c2c(nc3ccccc13)C(=O)N(C1CCCCC1)C2 |
| 981 | COc1ccc(Cl)cc1S(=O)(=O)N1CCCC(C)(C(=O)NCc2ccccc2)C1 (stereo unspecified) |
| 927 | CCOc1ccc(C(=O)N2CCCC2c2nc(-c3ccc(OC)c(OC)c3)no2)cc1 (stereo unspecified) |
| 574 | COC(=O)N1CCN(CCNC(=O)Cc2cccc3ccccc23)CC1 |
| 1050 | COc1ccc(CCc2nc(C3CC(=O)N(c4ccc(Cl)cc4)C3)no2)cc1 (stereo unspecified) |
| 861 | COc1ccc(-c2csc(NC(=O)NC3CCCC3)n2)cc1 |
| 623 | O=C(Cc1cccc(F)c1)NCC(=O)Nc1nc2ccccc2[nH]1 |
| 1050 | CCN1C(=O)COc2cc(-c3noc(C(=O)NC4CCCCCC4)n3)ccc21 |
| 1030 | CCN1C(=O)COc2ccc(-c3noc(COc4ccc(F)cc4)n3)cc21 |
| 824 | Cc1ccsc1CCNC(=O)Cn1nc(C(=O)N2CCCC2)c2ccccc21 |
| 662 | COc1cccc(NC(=O)NCCc2cn(C)c3ncccc23)c1 |
| 1090 | CCn1cc(-c2nc(C)c(C(=O)NCc3ccccc3F)s2)c2cccnc21 |
| 977 | Cc1cc2nn(CC(=O)NCc3ccc(F)cc3)c(=O)n2c(Nc2ccccc2C)n1 |
| 652 | CCOc1ccc(NC(=O)N2CCC(C(=O)NCc3csc(C)n3)CC2)cc1 |
| 1040 | CCC(=O)N1CCc2c(C(=O)N3CCN(c4cc(C)ccc4C)CC3)cccc21 |
| 979 | CCCn1c(=O)sc2cc(S(=O)(=O)N3CCC(C(=O)NC(C)(C)CC)CC3)ccc21 |
| 1060 | CCOc1ccc(-c2csc(C)n2)cc1S(=O)(=O)N1CCN(c2ccc(OC)cc2)CC1 |
| 1070 | CCCC(NC(=O)Cc1ccc(OCC)c(OCC)c1)C(=O)Nc1nc2ccccc2[nH]1 (stereo unspecified) |
